Results reported in article PMC2943923, “Human Integrin α3β1 Regulates TLR2 Recognition of Lipopeptides from Endosomal Compartments” (PLoS ONE, 2010).

Key:
U937 macrophages [1] = test: IFN-β transcript (qRT-PCR) in Pam3CSK4-stimulated U937 macrophages; type: cell-based, human; conditions: 100 ng/ml Pam3CSK4, serum-free, 6 hrs or 16 hrs post stimulation
Description: Cells were collected at 6 hours post infection unless otherwise indicated. RNA was extracted using TRIzol (Invitrogen) following the manufacturer's instructions. RNA was resuspended in water containing RNaseOut (Invitrogen) and treated with DNaseI using the Turbo DNA-free kit (Ambion). cDNA was synthesized using the ImPromII kit (Promega) following the manufacturer's instructions. Quantification of cDNA was performed by quantitative RT-PCR (iCycler, BioRad) using the iQ SYBR Green Supermix (BioRad). Cycling parameters were 95°C for 15 minutes followed by 40 cycles of 95°C for 30 seconds, 60°C for 30 seconds, and 72°C for 30 seconds. Primers used to measure IL-6, TNF-α, and β-actin were published previously, [62]. Human integrin α3 primers, forward: 5′-[…]-3′, reverse 5′-[…]-3′ were generated by Primer Bank, ID# 6006011a1. Human integrin αv primers, forward: 5′-[…]-3′, reverse 5′-[…]-3′ were generated by Primer Bank, ID# 4504763a2. Human integrin α5 primers, forward: 5′-[…]-3′, reverse 5′-[…]-3′ were generated by Primer Bank, ID# 4504751a3. Human integrin α6 primers, forward: 5′-TCGGCACAGCAACCTTGAA-3′, reverse 5′-[…]-3′ were generated by Primer Bank, ID# 30046796a2. Human TLR2 primers, forward: 5′-[…]-3′, reverse 5′- […]-3′. Human TLR4 primers, forward: 5′-[…]-3′, reverse 5′-[…]-3′ were generated by Primer Bank, ID# 19924149a1. Human TLR7 primers, forward: 5′-[…]-3′, reverse 5′-[…]-3′. […]

U937 macrophages [2] = test: IFN-α1 transcript (qRT-PCR) in Pam3CSK4-stimulated U937 macrophages; type: cell-based, human; conditions: 100 ng/ml Pam3CSK4, serum-free; for reduction of IFN-α1 transcript levels: 100 ng/ml concanamycin A or 1 µM monensin, 6 and 16 hours, p = 0.037
Description: (§1) Inhibition of endosomal acidification was achieved using inhibitors of V-ATPase, concanamycin A (100 ng/ml) and bafilomycin A1 (500 µM) (Sigma) or the ionophore monensin (1 µM) (Sigma). Clathrin-mediated endocytosis was inhibited with chlorpromazine (CPZ) (5 µM) (Sigma). Concentrations were chosen based on prior studies, [61]. All inhibitors were added 30 minutes prior to stimulation. For CPZ experiments, the media was replaced at the time of stimulation to remove CPZ.
Cells were collected at 6 hours post infection unless otherwise indicated. RNA was extracted using TRIzol (Invitrogen) following the manufacturer's instructions. RNA was resuspended in water containing RNaseOut (Invitrogen) and treated with DNaseI using the Turbo DNA-free kit (Ambion). cDNA was synthesized using the ImPromII kit (Promega) following the manufacturer's instructions. Quantification of cDNA was performed by quantitative RT-PCR (iCycler, BioRad) using the iQ SYBR Green Supermix (BioRad). Cycling parameters were 95°C for 15 minutes followed by 40 cycles of 95°C for 30 seconds, 60°C for 30 seconds, and 72°C for 30 seconds. Primers used to measure IL-6, TNF-α, and β-actin were published previously, [62]. Human integrin α3 primers, forward: 5′-[…]-3′, reverse 5′-[…]-3′ were generated by Primer Bank, ID# 6006011a1. Human integrin αv primers, forward: 5′-[…]-3′, reverse 5′-[…]-3′ were generated by Primer Bank, ID# 4504763a2. Human integrin α5 primers, forward: 5′-[…]-3′, reverse 5′-[…]-3′ were generated by Primer Bank, ID# 4504751a3. Human integrin α6 primers, forward: 5′-TCGGCACAGCAACCTTGAA-3′, reverse 5′-[…]-3′ were generated by Primer Bank, ID# 30046796a2. Human TLR2 primers, forward: 5′-[…]-3′, reverse 5′- […]-3′. Human TLR4 primers, forward: 5′-[…]-3′, reverse 5′-[…]-3′ were generated by Primer Bank, ID# 19924149a1. Human TLR7 primers, forward: 5′-[…]-3′, reverse 5′-[…]-3′. Human TLR9 primers, forward: 5′-GCGACCAGGCTCCCGAAGG-3′, reverse 5′-[…]-3′. Human IFN-α1 primers, forward: 5′-[…]-3′, reverse: 5′-[…]-3′ were generated by Primer Bank, ID# 13128950a1 [63], [64]. […]

U937 macrophages [3] = test: IL-6 secretion (ELISA) of U937 macrophages stimulated with Pam3CSK4; type: cell-based, human; conditions: 100 ng/ml Pam3CSK4, 6 hours; for decrease in Pam3CSK4-induced IL-6 secretion relative to control cells: 100 ng/ml concanamycin A, p = 0.037; for decrease in Pam3CSK4-induced IL-6 secretion relative to control cells / mean secretion of IL-6 by inhibitor-treated cells: 500 µM bafilomycin A1, 1 µM monensin, 5 µM CPZ; for mean secretion of IL-6 by inhibitor-treated cells: inhibitor added 30 minutes before: 100 ng/ml concanamycin A
Description: (§2) The human monocyte cell line U937 (American Type Culture Collection) was maintained in RPMI (Mediatech) with 10% FBS and 1% penicillin-streptomycin. For all experiments, U937 monocytes were differentiated at a concentration of 5×10^5 cells per well in 24-well plates with 100 nM phorbol 12-myristate 13-acetate (Sigma) for 48 hours. All experiments were performed under serum-free conditions, unless otherwise noted.
The TLR2/1 triacylated lipid ligand, Pam3CSK4 (Invivogen), biotinylated Pam3CSK4 (Axxora) or Pam3CSK4-rhodamine (Invivogen) were resuspended in endotoxin-free water. Pam3CSK4 was used at a concentration of 100 ng/ml to stimulate macrophages, and Pam3CSK4-biotin and Pam3CSK4-rhodamine were used at indicated concentrations.
as §1, with “CPZ. […]” for “CPZ.”
Supernatants were collected 6 hours post stimulation. IL-6 and TNF-α were measured using the DuoSet enzyme linked immunoabsorbent assay (ELISA) kit (R&D systems) following the manufacturer's instructions.

[4] = system: murine bone marrow derived macrophages; test: IFN-β induction in murine bone marrow derived macrophages; type: cell-based; conditions: data not shown
U937 macrophages [5] = test: IL-6 secretion (ELISA) of U937 macrophages stimulated with B. burgdorferi; type: cell-based, human; conditions: for mean secretion of IL-6 by inhibitor-treated cells: B. burgdorferi MOI 10, 6 hours, serum-free, three experiments
Description: as §2
Clonal isolates of infectious, low passage B. burgdorferi sensu stricto (strain N40, clone D10E9) were cultured in Barbour-Stoenner-Kelley (BSK II) medium at 37°C as described, and used at multiplicity of infection (MOI) 10∶1.
as §1
For blocking antibody experiments, U937 macrophages were incubated for 2 hours prior to stimulation with 50 µg/ml of control mouse ascites fluid (NS-1 murine myeloma, Sigma-Aldrich) or anti-integrin α3β1 monoclonal antibody (P1B5, Millipore).
(§3) Supernatants were collected 6 hours post stimulation.

U937 macrophages [6] = test: TNF-α secretion (ELISA) of U937 macrophages stimulated with Pam3CSK4; type: cell-based, human; conditions: Fig S5A; 100 ng/ml concanamycin A or 1 µM monensin; 100 ng/ml Pam3CSK4, 6 hours, serum-free
Description: as §1, §3

U937 macrophages [7] = test: IL-6 secretion of U937 macrophages stimulated with TNF-α (inhibitor control); type: cell-based, human; conditions: pre-treatment with inhibitor, stimulation with TNF-α; data not shown
Description: as §1, §3

U937 macrophages [8] = test: IL-6 transcript (qRT-PCR) in B. burgdorferi-stimulated U937 macrophages; type: cell-based, human; conditions: 1 µM monensin; B. burgdorferi MOI 10, 6 hours, serum-free (Fig. S4)
Description: as §1
(§4) Cells were collected at 6 hours post infection unless otherwise indicated. RNA was extracted using TRIzol (Invitrogen) following the manufacturer's instructions. RNA was resuspended in water containing RNaseOut (Invitrogen) and treated with DNaseI using the Turbo DNA-free kit (Ambion). cDNA was synthesized using the ImPromII kit (Promega) following the manufacturer's instructions. Quantification of cDNA was performed by quantitative RT-PCR (iCycler, BioRad) using the iQ SYBR Green Supermix (BioRad). Cycling parameters were 95°C for 15 minutes followed by 40 cycles of 95°C for 30 seconds, 60°C for 30 seconds, and 72°C for 30 seconds. Primers used to measure IL-6, TNF-α, and β-actin were published previously, [62]. Human integrin α3 primers, forward: 5′-[…]-3′, reverse 5′-[…]-3′ were generated by Primer Bank, ID# 6006011a1. […]

U937 macrophages [9] = test: IL-6 transcript (qRT-PCR) in Pam3CSK4-stimulated U937 macrophages; type: cell-based, human; conditions: 1 µM monensin; 100 ng/ml Pam3CSK4, 6 hours, serum-free; normalized to β-actin (Fig. S2)
Description: as §1, §4

[10] = Fig 5, serum-free, three experiments
[11] = 100 ng/ml concanamycin A, 500 µM bafilomycin A1, 1 µM monensin
[12] = Homo sapiens, U-937, 6 h, read-out: inhibition of B. burgdorferi induction of IL-6

| Molecule | decrease in Pam3CSK4-induced IL-6 secretion relative to control cells (U937 macrophages [3]; serum-free) | mean secretion of IL-6 by inhibitor-treated cells (U937 macrophages [3]; [10]) | reduction of IFN-α1 transcript levels (U937 macrophages [2]) | mean secretion of IL-6 by inhibitor-treated cells (U937 macrophages [5]; [11]) | mean secretion of TNF-α by inhibitor-treated cells (U937 macrophages [6]) | change in secretion of IL-6 in response to TNF-α (U937 macrophages [7]) | further results |
| --- | --- | --- | --- | --- | --- | --- | --- |
| palmitoyl-3-Cys-Ser-(Lys)4 [Pam3CSK4, synthetic TLR2/1 triacylated lipid ligand, prototypical bacterial lipopeptide (Invivogen)] | – | – | – | – | – | – | induction of IFN-β (U937 macrophages [1]): did not observe any induction; induction of IFN-α1 (interferon response) (U937 macrophages [2]): induces an interferon response; mean secretion of IL-6 (U937 macrophages [3]; Fig 1A, cells transduced with control shRNA, serum-free, mean of three independent experiments): 350 pg/mL; mean secretion of IL-6 (U937 macrophages [3]; Fig 2A, in the presence of 1% FBS, three experiments): 975 pg/mL; mean secretion of IL-6 (U937 macrophages [3]; Fig 2A, serum-free, three experiments): 1,048 pg/ml; mean secretion of IL-6 (U937 macrophages [3]; Fig 2B, control shRNA cells, 1% FBS): 974 pg/mL; mean secretion of IL-6 (U937 macrophages [3]; Fig 2B, control shRNA cells, serum-free): 1,048 pg/ml; mean secretion of IL-6 (U937 macrophages [3]; Fig 5, control cells (no inhibitor), serum-free, three experiments): 670 pg/mL; induction of IFN-β [4]: confirm Pam3CSK4-induced IFN-β |
| CN(C)CCCN1c2ccccc2Sc2ccc(Cl)cc21 [CPZ, chlorpromazine] | 49% | 340 pg/mL | – | – | – | – | – |
| C/C=C/[C@H]1O[C@@](O)([C@@H](C)[C@H](O)[C@H](C)[C@H]2OC(=O)/C(OC)=C/C(C)=C/[C@@H](C)[C@@H](O)[C@@H](CC)[C@@H](O)[C@H](C)C/C(C)=C/C=C/[C@@H]2OC)C[C@@H](O[C@H]2C[C@@H](O)[C@H](OC(N)=O)[C@@H](C)O2)[C@@H]1C [concanamycin A] | 53% | 320 pg/mL | 84% | 437 pg/mL | 928 pg/mL | no significant change | inhibition of B. burgdorferi induction of IL-6 (U937 macrophages [5]; 100 ng/ml concanamycin A, 500 µM bafilomycin A1, 1 µM monensin, MOI 10, 6 hours, p = 0.037): 56% |
| CO/C1=C\C(C)=C\[C@@H](C)[C@@H](O)[C@@H](C)C/C(C)=C/C=C/[C@H](OC)[C@@H]([C@@H](C)[C@@H](O)[C@H](C)[C@@]2(O)C[C@@H](O)[C@H](C)[C@@H](C(C)C)O2)OC1=O [bafilomycin A1] | 37% | 430 pg/mL | – | 680 pg/mL | – | no significant change | inhibition at 500 µM (U937 macrophages [5]; [12]): 30% |
| CC[C@@]1([C@@H]2O[C@@H]([C@H]3O[C@@](O)(CO)[C@H](C)C[C@@H]3C)C[C@@H]2C)CC[C@H]([C@]2(C)CC[C@]3(C[C@H](O)[C@@H](C)[C@@H]([C@@H](C)[C@@H](OC)[C@H](C)C(=O)O)O3)O2)O1 [monensin] | 38% | 420 pg/mL | 88% | 567 pg/mL | 567 pg/mL | decrease in IL-6 secretion | reduction of IL-6 transcript (U937 macrophages [8]): 51%; inhibition at 1 µM (U937 macrophages [5]; [12]): 40%; reduction of IL-6 transcript (U937 macrophages [9]): 32% |
